Test results: US11149047B2, “Aryl imidazoles for treatment of cancer” (Aptose Biosciences Inc., priority 2017, dated 2021)
Read-outs that look alike come from different tables or passages of the source.

Assays:
[1] = test system: phospho-ATM, phospho-γH2AX, PARP cleavage in Raji/COMPOUND IR cells; assay: Western blot of phospho-ATM, γH2AX and cleaved PARP; format: cell-based, human; details: 0.5 μM, 24 h
Description: Only when the Raji/COMPOUND IR cells were treated with at least 3 times as much COMPOUND I did the intracellular content of Fe(COMPOUND I)3 finally reach a level similar to that in the sensitive cells (FIG. 4D).

[2] = test system: MV4-11; assay: Cytotoxicity study (MTS); format: cell-based; details: Homo sapiens
Description: EOL-1, GRANTA-519, Jeko-1, Jurkat, Molm-13, NOMO-1, SKM-1, and SU-DHL-6 were obtained from Leibniz-Institut DSMZ. HL-60, KG-1, Mino, MV4-11, Raji, and THP-1 were obtained from ATCC. HEL92.1.7 were obtained from the European Collection of Authenticated Cell Cultures and Ramos cells were a gift from Dr. M. Andreeff (MD Anderson Cancer Center, Houston, Tex.). All cells were cultured in complete media as per the manufacturer's instructions. Early passage cells were collected and frozen within 1 month of receipt from the manufacturer. All experiments were performed on early passage cells within 6 weeks of thawing. MycoScope Mycoplasma Detection Kit (Genlantis catalog #MY01050) was used to screen for potential contamination every 6 months. Peripheral blood mononuclear cells (PBMC) were isolated from fresh healthy donor blood using Ficoll-Paque PLUS (GE Healthcare, catalog #17-1440-02). For synthesis of COMPOUND I free base, 10-phenanthroline-5,6-dione (1.2 equivalents), acetic acid (22 volumes), 2-methyl-5-fluoroindole-3-carboxaldehyde (1.0 equivalents), and ammonium acetate (15 equivalents) were reacted under medium agitation while heated at 95±5° C. for 3 to 7 hours. The reaction was cooled to between 20° C. and 25° C., filtered, rinsed with acetic acid and ethanol, and dried with N2 purge, followed by a wash with 2:1 ethanol:water at 65° C. for 4 hours, cooling to 20° C. to 25° C., filtration, rinsing with 2:1 ethanol:water and EtOAc, and then dried with N2 purge. The purity by HPLC was 99.5%, and the structural identity was confirmed by FT-IR, ^1HNMR, ^13C NMR, and LC/MS. For Fe(COMPOUND I)3 synthesis, five molar equivalents of ferrous ion FeSO4 in water was added to COMPOUND I dissolved in ethanol. The deep red precipitate produced, Fe(COMPOUND I)3, was collected and dissolved in DMSO and characterized by HPLC and mass spectrometry as >95% pure. CX-5461 (7) was purchased from MedChem Express (catalog #HY-13323).
[…] Cell viability was measured using CellTiter 96 AQueous one solution (MTS) cell proliferation assay (Promega, catalog #G3581), and IC50 values were calculated using GraphPad Prism 7 software.

[3] = test system: AML cell lines and various forms of lymphoma cell lines; assay: Cytotoxicity study (MTS), cell line panel; format: cell-based; details: inhibition of proliferation; read-out: IC50 values, range over cell lines
Description: Cells were plated and treated with vehicle DMSO or COMPOUND I (10 concentrations) in 96-well plates for 5 days at 37° C. and 5% CO2. Cell viability was measured using CellTiter 96 AQueous one solution (MTS) cell proliferation assay (Promega, catalog #G3581), and IC50 values were calculated using GraphPad Prism 7 software.
Previous studies reported upregulation of KLF4 and CDKN1A expression as a potential mechanism of APT0-COMPOUND I activity in tumors. […] The upregulation of CDKN1A mRNA increased with duration of exposure in all AML cell lines tested (FIGS. 15D and 15E). At later time points, CDKN1A expression began to decrease, likely due to increasing cell death. Induction of CDKN1A expression is typically associated with a subsequent G0-G1, cell-cycle arrest, which was observed following COMPOUND I treatment of solid tumor lines.

[4] = test system: MV4-11, EOL-1, and KG-1 AML cells; assay: Flow cytometry for apoptosis (Annexin V / PI); format: cell-based; details: all cell lines, FIG. 10A
Description: Cells were treated as described above. To determine apoptosis, cells were stained with FITC-Annexin V and propidium iodide (PI; BD Pharmingen, catalog #556570) and then analyzed on BD Accuri C6 flow cytometer. To measure DNA synthesis and phases of cell cycle, treated cells were stained with 5-ethynyl-2′-deoxyuridine (Edu) Alexa Fluor 488 (Thermo Fisher Scientific, catalog #C10425) and PI (PI/RNase A staining solution, BD Biosciences, catalog #550825). The dead cells were excluded from analysis by using Live/Dead Fixable Far Red Dead Cell Stain Kit (Thermo Fisher Scientific, catalog #L34973). Staining was performed as per the manufacturers' instructions.
To investigate the mechanism by which COMPOUND I causes cell death, MV4-11, EOL-1, and KG-1 AML cells were treated with or without COMPOUND I and subjected to apoptotic marker detection by flowcytometry and Western blotting. Cells were stained with PI and Annexin V to distinguish between live (Annexin V and PI negative), early apoptotic (Annexin V positive and PI negative), late apoptotic (Annexin V and PI positive), and dead (Annexin V negative and PI positive) cells. […] COMPOUND I induced accumulation of c-PARP1 in a concentration- and time dependent manner that paralleled apoptosis induction as measured by Annexin V/PI staining (FIGS. 10B-C; FIG. 17B). […]

[5] = test system: G4 sequences (telomere, MYC, KIT, rRNA oligos); assay: Modified FRET assay, melting of G-quadruplex oligos; format: binding, human; details: FIG. 13C; COMPOUND I data at 6-hour incubation
Description: FRET assay and data analysis was performed as described previously and modified by using dual labeled (5′ FAM-3′ BHQ1) single-stranded oligos. Melting temperature of each oligo was assessed in the presence of vehicle DMSO or escalating concentrations of COMPOUND I, Fe(COMPOUND I)3, CX-5461, or TMPyP4 using a Roche LightCycler 96 [at 37° C. for 300 seconds followed by temperature increased in […] intervals up to 91° C. (25 steps) with 300-second total incubation time at each temperature]. Drug and oligo reaction mixes were analyzed immediately or incubated for 6 hours at room temperature and then analyzed. […] COMPOUND I data are presented for 6-hour time point.
The ability of COMPOUND I (parental monomeric form of the drug) and Fe(COMPOUND I)3 to bind and stabilize G4 sequences using a modified FRET assay was evaluated (FIGS. 21 and 22). TMPyP4, a well-known G4 ligand, and CX-5461, a clinical stage molecule recently reported to have G4-binding properties, were utilized as controls to assess the specificity of COMPOUND I and Fe(COMPOUND I)3 for G4-stabilizing activity.

Cc1[nH]c2ccc(F)cc2c1-c1nc2c3cccnc3c3ncccc3c2[nH]1 [COMPOUND I, 2-(5-fluoro-2-methyl-1H-indol-3-yl)-1H-imidazo[4,5-f][1,10]phenanthroline]
phospho-ATM, phospho-γH2AX, PARP cleavage [1]: no increase in phospho-ATM or phospho-γH2AX, and no detectable PARP cleavage
IC50 ([2]; MV4-11, 120 h, AML, 5 days, read-out: IC50 (μM) Mean): 0.24 µM
IC50 ([2]; MV4-11, exposure 48 hours, read-out: IC50): 0.47 µM
IC50 ([2]; MV4-11, exposure 72 hours, read-out: IC50): 0.4 µM
IC50 ([2]; MV4-11, exposure 120 hours, read-out: IC50): 0.24 µM
IC50 [3]: 57 to 1750 nM
apoptotic cells at 24 hours [4]: concentration-dependent increase in apoptotic cells
stabilization of G4 sequences (ΔT1/2) [5]: time-dependent stabilization of G4 motifs, but it demonstrated the greatest propensity for stabilizing the MYC G4 sequences
